# Active and inactive are the calls of the source.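 How the source made its calls: active means maximal inhibition of USP17 at or above 30% in the confirmation dose-response, a value not among the printed readouts; inactive means the rest.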
# Target: Ubiquitin carboxyl-terminal hydrolase 17-like protein 5 (Homo sapiens) (UniProt A8MUK1)
# Experiment: ubiquitin-specific protease 17 inhibitors, concentration series, biochemical, verification of primary actives (AID 1645864)
# Conditions: purified USP17, ubiquitin-rhodamine cleavage fluorescence, 3 h
# Chain of Ubiquitin carboxyl-terminal hydrolase 17-like protein 5 (Homo sapiens) (A8MUK1 whole entry, looked up): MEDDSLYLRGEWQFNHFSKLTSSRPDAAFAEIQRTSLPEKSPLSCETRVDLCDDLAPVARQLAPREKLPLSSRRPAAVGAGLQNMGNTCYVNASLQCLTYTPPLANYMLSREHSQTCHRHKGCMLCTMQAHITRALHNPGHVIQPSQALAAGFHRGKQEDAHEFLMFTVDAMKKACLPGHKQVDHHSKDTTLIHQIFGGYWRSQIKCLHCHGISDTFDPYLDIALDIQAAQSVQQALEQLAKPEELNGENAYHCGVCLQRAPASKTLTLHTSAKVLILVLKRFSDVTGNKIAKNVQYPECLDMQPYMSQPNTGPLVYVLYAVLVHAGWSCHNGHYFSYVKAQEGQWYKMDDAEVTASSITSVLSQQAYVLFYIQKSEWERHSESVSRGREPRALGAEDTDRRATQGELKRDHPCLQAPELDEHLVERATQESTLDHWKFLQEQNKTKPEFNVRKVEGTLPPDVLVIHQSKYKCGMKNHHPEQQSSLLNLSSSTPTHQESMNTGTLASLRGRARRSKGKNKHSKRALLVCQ
row,Structure (SMILES),IC50
1,COc1ccc2nc3c(cc2c1)c(=O)n(C)c1c3c(=O)n(-c2ccccc2)c(=O)n1-c1ccccc1,> 50 µM (inactive)
2,COc1ccc(CCn2cnc3c([nH]c4ccccc43)c2=O)cc1,2.98 µM
3,CCN1CCCC1CN(Cc1cc2cc(OC)ccc2[nH]c1=O)C(=O)NCc1ccccc1 (centres undefined),> 50 µM (inactive)
4,CC1Cc2ccccc2N1C(=O)Cn1c(=O)cc(O)c2ccccc21 (centres undefined),> 50 µM (inactive)
5,CC(C)CC(=O)Nc1cc(F)c2nc(N3CCOCC3)ccc2c1,5.95 µM
6,COc1ccc(C2SCC(=O)Nc3c2c(=O)[nH]n3C2CCCCC2)cc1 (centres undefined),28.7 µM
7,COc1cccc(-n2cnc3cc(C(=O)NC4CC4)ccc3c2=O)c1,15 µM
8,O=C1C=CC(O)C2C1CC13SSC4(CC5C(=O)C=CC(O)C5N4C1=O)C(=O)N23 (centres undefined),> 50 µM (inactive)
9,Cc1ccccc1NC(=O)c1ccc(N2CCCCC2)nn1,> 50 µM (inactive)
10,COc1ccc(CN(C(=O)c2cc(-c3ccc(C)cc3)on2)C2CCS(=O)(=O)C2)cc1 (centres undefined),17.3 µM
11,Cc1cc(C)n(-c2cccc(C(=O)Nc3ccc4c(c3)CCN4S(C)(=O)=O)c2)n1,> 50 µM (inactive)
12,N#Cc1ccccc1Cn1c(=O)n(Cc2ccco2)c(=O)c2ccccc21,36.6 µM
13,c1csc(CCN2CCc3nc4cccnc4cc3C2)c1,> 50 µM (inactive)
14,COC(=O)CC1CC23OC2(C(=O)c2c(O)cccc2C3=O)C(C)O1 (centres undefined),0.161 µM
15,O=C1CC(NS(=O)(=O)c2ccc3ccccc3c2)CN1c1cccc(F)c1 (centres undefined),47.6 µM
16,COc1ccc(N2CCN(Cc3nnnn3Cc3ccc4c(c3)OCO4)CC2)cc1,> 50 µM (inactive)
17,CC1CCN(c2nnc(-c3nc(C4CC4)no3)c3ccccc23)CC1,> 50 µM (inactive)
18,Cc1ccccc1-c1nc(CN(C)S(=O)(=O)c2ccccc2)c(C)o1,> 50 µM (inactive)
19,Fc1ccccc1N1CCN(c2ncc3c(n2)CCN(Cc2ccccn2)C3)CC1,43 µM
20,N#C/C(=C/c1sc(N2CCOCC2)nc1-c1ccccc1)c1ccccn1,> 50 µM (inactive)
21,Fc1cccc(-n2cc(-c3noc(-c4ccc[nH]4)n3)nn2)c1,36.4 µM
22,COc1ccc(C2CC(c3ccc(C)cc3)N(C(=O)C3CC3)c3ncnn32)cc1 (centres undefined),> 50 µM (inactive)
23,O=C(Nc1ccc(F)cc1F)NC1Cc2ccccc2C1,28.2 µM
24,COc1c2nc3ccccc3oc-2cc(=O)c1OC,23.7 µM
25,O=c1[nH]c(C2CCN(S(=O)(=O)c3ccc(S(=O)(=O)NC4CCCC4)cc3)CC2)nc2c1nnn2Cc1cccc(Cl)c1,> 50 µM (inactive)

row,Structure (SMILES),IC50
1,COc1ccccc1-c1ccc(SCC(=O)Nc2ccc3c(c2)OCCO3)nn1,> 50 µM (inactive)
2,CCOC(=O)c1cc2c(ccn2C)n1CC(=O)N1CCc2ccccc2C1,> 50 µM (inactive)
3,O=S(=O)(c1ccc(F)cc1)N1CCCC1c1ccnc(Nc2cnccn2)n1 (centres undefined),> 50 µM (inactive)
4,Cc1cc(C(=O)N2CCOC3(CC=CCN(CCc4ccccc4)C3=O)C2)n2nccc2n1 (centres undefined),> 50 µM (inactive)
5,Cc1ccc(C(=O)NCc2ccc(C(=O)Nc3ccc(C)c(C)c3)o2)cc1,24.1 µM
6,O=C(Cn1c(CSc2ccccc2)nc2ccccc21)Nc1ccccc1F,39.6 µM
7,COc1cccc(/C=C/C(=O)Nc2ccc(C)c(Cl)c2)c1,43.4 µM
8,CCCc1cc(=O)n2[nH]c(COc3ccccc3)c(-c3ccccc3)c2n1,41.7 µM
9,Cc1ccc2nc(NC(=O)CSc3nnc(-c4ccncc4)n3C3CC3)sc2c1,3.82 µM
10,CC(C)(C)C(=O)Nc1ccc(C(=O)Nc2cccc(-c3nnc(-c4ccccc4)o3)c2)cc1,5.27 µM
11,Cc1c(Cl)cccc1NC(=O)Cn1c(=O)c2ccccc2n2nncc12,> 50 µM (inactive)
12,Cc1cccc(-n2ccnc(SCC(=O)Nc3ccc(Cl)cc3F)c2=O)c1,2.21 µM
13,COc1ccc(C(=O)Nc2sc3c(c2C(=O)NCc2cccnc2)CCCC3)cc1,6.19 µM
14,Cc1ccc(C(=O)N2CCCC3(C2)Nc2cccnc2NC3=NC2CCCC2)s1 (centres undefined),> 50 µM (inactive)
15,O=C(Nc1nc2ccccc2s1)c1ccc2c(c1)C(=O)N(Cc1cccnc1)C2=O,4.06 µM
16,Cc1ccc(C(=O)c2cn(CC(=O)Nc3ccccc3)c3ccc(C)cc3c2=O)cc1,10.9 µM
17,Cc1cc(O)c2c3c(c(O)cc2c1)C(=O)c1c(O)cccc1C3=O,0.407 µM
18,Cc1cccc(NC(=O)Cn2cnc(-c3noc(-c4ccccc4)n3)c2)c1C,1.35 µM
19,CCOc1ccc2[nH]c(=O)c(CN(C(=O)c3cccs3)C3CCCC3)cc2c1,11.1 µM
20,N#Cc1c(-c2ccccc2)ccn(Cc2cccc(C(F)(F)F)c2)c1=O,33.8 µM
21,COC(=O)c1cc2c(ccn2C)n1CC(=O)NC1CCCC1,> 50 µM (inactive)
22,O=C(O)CCCCCN1C(=O)CC(c2ccc(Cl)cc2)CC1=O,18.2 µM
23,Cc1sc2ncn3c(=O)n(CC(=O)Nc4ccc(F)c(Cl)c4)nc3c2c1C,2.82 µM
24,O=C(NCc1cccnc1)c1cnn2c(C(F)(F)F)cc(-c3ccc(F)cc3)nc12,27.7 µM
25,COc1cccc(NC(=O)C2C3C=CC4(O3)C2C(=O)N(CCc2ccccc2Cl)C4C(=O)NC2CCCCC2)c1 (centres undefined),28.2 µM

row,Structure (SMILES),IC50
1,Nc1nc(-c2ccc[nH]2)cs1,> 50 µM (inactive)
2,CCOc1ccc(NC(=O)Cn2c(=O)n(CCC(=O)NCc3ccccc3OC)c(=O)c3ccccc32)cc1,4.35 µM
3,Cc1ccccc1C(=O)c1ccc(C(=O)NC2CCCCCC2)[nH]1,2.96 µM
4,COc1cccc(CCNC(=O)CCn2c(=O)c(C)nc3cc(C)c(C)cc32)c1,> 50 µM (inactive)
5,CSc1cccc(NC(=O)CCc2ccc3nc(NC(C)=O)sc3c2)c1,> 50 µM (inactive)
6,O=C(COc1ccc(Cl)cc1)N1CCc2cc3ccccc3nc21,2.41 µM
7,O=C(COc1ccc2c(c1)CCC2)Nc1ccc2c(c1)CCC2,19.1 µM
8,CN1CCN(c2ccc3nc(-c4ccccc4)c(-c4ccccc4)nc3c2)CC1,> 50 µM (inactive)
9,COCCCNC(=O)c1ccc(Cn2c(=O)c3ccccc3n(CC(=O)NC3CCCCC3)c2=O)cc1,30.6 µM
10,COCC(C)Nc1ncc(-c2cnccn2)c(-c2ccc(C)s2)n1 (centres undefined),> 50 µM (inactive)
11,CCCCN1CC(C(=O)Nc2ccc(C(=O)Nc3ccc(Cl)cc3)cc2)CC1=O (centres undefined),16.5 µM
12,COc1ccccc1NS(=O)(=O)c1cccc(NC(=O)CCc2nc3ccccc3s2)c1,4.09 µM
13,Fc1ccc(-c2noc(-c3nnc(NCc4cccnc4)c4ccccc34)n2)cc1,2.59 µM
14,COc1ccccc1S(=O)(=O)N1CC[C@@H]2CN(C)[C@@H]2C1,32.2 µM
15,COc1ccc(CN2CCCC23CCCN(C(=O)CCc2cccnc2)C3)cc1F (centres undefined),33.6 µM
16,O=S(=O)(c1cccc(F)c1)N1CCc2nc3ccccc3n2CC1,3.12 µM
17,O=C(/C=C/C=C/C=C/C1CCCCC1)NC1=C[C@@](O)(/C=C/C=C/C=C/C(=O)NC2=C(O)CCC2=O)[C@@H]2O[C@@H]2C1=O,3.32 µM
18,COc1ccccc1-c1nc2c3c(C)c(C)n(Cc4cccnc4)c3ncn2n1,> 50 µM (inactive)
19,O=C(CN1C(=O)C2CCCC2=Nc2ccccc21)Nc1cc(F)ccc1F (centres undefined),13.9 µM
20,O=C(/C=C/c1ccc(F)cc1)Nc1ccc2c(c1)OCCO2,> 50 µM (inactive)
21,Cc1nc2nc(SCc3nc4ccccc4n3C)[nH]c2cc1Br,3.51 µM
22,Cc1cc(C(=O)Nc2ccc3nc(N4CCN(c5ncccn5)CC4)cc(C)c3c2)ccc1[N+](=O)[O-],1.68 µM
23,O=C(/C=C/c1ccccc1)N1CCN(C2=NS(=O)(=O)c3ccccc32)CC1,> 50 µM (inactive)
24,O=[N+]([O-])c1ccc(NCc2ccc(-c3cccs3)s2)nc1,39.1 µM
25,CC1CC(=O)c2c(cc3c(-c4c(O)cc(O)c5c(O)c6c(cc45)OC(C)CC6=O)c(O)cc(O)c3c2O)O1 (centres undefined),0.486 µM

row,Structure (SMILES),IC50
1,N#Cc1ccccc1Cn1c(=O)n(CCCCC(=O)NCc2ccco2)c(=O)c2ccccc21,46.3 µM
2,O=C(Cc1ccccc1F)Nc1nc(-c2ccco2)c(-c2ccco2)s1,> 50 µM (inactive)
3,CC(=O)Nc1ccc(S(=O)(=O)NCc2ccc(C(=O)NCc3ccc(C)cc3)cc2)cc1,27.9 µM
4,O=C1N(Cc2ccc(F)cc2)CCN1c1ccc(C(F)(F)F)cn1,> 50 µM (inactive)
5,CN(C)Cc1ccc(C(=O)Nc2ccc(-c3nccs3)cc2)cc1,> 50 µM (inactive)
6,O=C(Cn1c(=O)nc(-c2ccccc2)c2ccccc21)NCc1ccc2c(c1)OCO2,27.8 µM
7,Cc1nn(-c2ccccc2)c2c1N=C1C(Cl)=CC(Cl)=CN1C21C(=O)Nc2ccccc21 (centres undefined),> 50 µM (inactive)
8,CCCCCn1c(Sc2ccc(C)cc2)nc2c1c(=O)[nH]c(=O)n2C,16.3 µM
9,O=C(NC1CCN(Cc2ccccc2)CC1)c1[nH]nc2c1CCc1ccccc1-2,> 50 µM (inactive)
10,COc1ccc(-c2nonc2NC(=O)C(c2ccccc2)c2ccccc2)cc1OC,> 50 µM (inactive)
11,Cc1ccc(NC(=O)Cn2cc(S(=O)(=O)N3CCCC3)ccc2=O)cc1,19.5 µM
12,CCOc1ccccc1C(=O)Nc1ccc2c(c1)Sc1ncccc1C(=O)N2C,> 50 µM (inactive)
13,CC(C)N(C(=O)Cn1c(=O)[nH]c2ccccc21)c1ccccc1,> 50 µM (inactive)
14,Cn1ncc2c(=O)n(Cc3cccc(Cl)c3)cnc21,> 50 µM (inactive)
15,Nc1ncnc2c1ncn2[C@@H]1O[C@H](CO)C[C@@H]1O,34.3 µM
16,CC1=C2C(=NCCN1)C(=O)N(c1ccccc1)C2c1cccnc1 (centres undefined),> 50 µM (inactive)
17,COc1ccccc1Nc1ncc(C(=O)NCCc2ccc(Cl)cc2)c2ccccc12,4.16 µM
18,Cc1cc(-n2c(C)cc(-c3csc(N)n3)c2C)no1,> 50 µM (inactive)
19,COC1=CC(=O)c2c(O)c3c(c(C)c2C1=O)C[C@@]1(O)[C@H](O[C@H]2CC[C@H](O[C@H]4C[C@@](C)(O)[C@H](OC(=O)c5c(C)ccc(C)c5O)[C@H](C)O4)[C@@H](C)O2)C(=O)C(C(C)=O)=C(O)[C@@]1(O)C3=O,1.34 µM
20,COc1ccc(Cl)c(NC(=O)C2CC(=O)Nc3cc(-c4ccccc4)nn32)c1 (centres undefined),23.5 µM
21,COc1ccc(OC)c(-c2cn3ccn(-c4ccc5c(c4)CCC5)c(=O)c3n2)c1,> 50 µM (inactive)
22,CC(OC(=O)CNC(=O)c1ccc(Br)cc1)C(=O)Nc1ccc2c(c1)OCCO2 (centres undefined),30.4 µM
23,COc1ccc(-c2cc3c(=O)n(CC(=O)NCCCN4CCCC4)ncn3n2)cc1,29.2 µM
24,CN1C(=O)c2cc(NC(=O)c3ccccc3Cl)ccc2Oc2ccccc21,> 50 µM (inactive)

# — PubChem BioAssay AID1645864 (Buhrlage Lab, Dana-Farber Cancer Institute and Novartis …, 2021)
